This is an account of results in patent US7811760B2, “Vector and method for detecting the change in transcription amount” (priority 2006, dated 2010).

This test has as its target T1, aryl hydrocarbon receptor (Rattus norvegicus, UniProt P41738, Q794H).
T1 construct: The SD-line rat AhR gene-coding region was amplified from the reverse-transcribed sample by means of PCR; V5-His (C-terminal tag of vector pcDNA4/V5-His B); expressed in transfected cells; host or cells: mouse neuroblastoma Neuro2a, transient transfection with LIPOFECTAMINE 2000
T1 sequence (P41738 10-853 Q794H): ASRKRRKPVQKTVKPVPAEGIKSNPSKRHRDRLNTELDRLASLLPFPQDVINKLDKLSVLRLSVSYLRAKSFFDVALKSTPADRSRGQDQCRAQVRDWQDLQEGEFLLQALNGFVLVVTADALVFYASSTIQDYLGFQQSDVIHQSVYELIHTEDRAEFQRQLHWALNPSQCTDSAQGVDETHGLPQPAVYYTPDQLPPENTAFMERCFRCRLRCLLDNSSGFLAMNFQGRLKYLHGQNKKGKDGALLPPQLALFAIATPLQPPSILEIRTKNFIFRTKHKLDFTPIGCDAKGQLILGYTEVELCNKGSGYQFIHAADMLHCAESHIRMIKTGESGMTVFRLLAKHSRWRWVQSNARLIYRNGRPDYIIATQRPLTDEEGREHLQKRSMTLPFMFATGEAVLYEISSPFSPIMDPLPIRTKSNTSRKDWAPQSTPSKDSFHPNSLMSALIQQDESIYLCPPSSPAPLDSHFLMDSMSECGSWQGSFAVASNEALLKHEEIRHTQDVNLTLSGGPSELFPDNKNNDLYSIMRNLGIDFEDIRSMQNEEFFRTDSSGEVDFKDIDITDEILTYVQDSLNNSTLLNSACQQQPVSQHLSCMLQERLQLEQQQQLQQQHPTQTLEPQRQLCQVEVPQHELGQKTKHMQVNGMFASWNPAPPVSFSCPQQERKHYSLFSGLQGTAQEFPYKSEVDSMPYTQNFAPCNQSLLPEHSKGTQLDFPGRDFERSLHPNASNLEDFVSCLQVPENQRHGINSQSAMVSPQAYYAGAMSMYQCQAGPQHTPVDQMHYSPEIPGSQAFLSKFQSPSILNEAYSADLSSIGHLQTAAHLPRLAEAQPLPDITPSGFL
In words: Reporter gene assay in Neuro2a with pTHE100/Luc, pTHE100×3/Luc and pTHE100×5/Luc (tandem copies of SEQ ID No: 3). Type of test: cell-based, SD-line rat. From the text:
The terminal of the “region of SEQ ID No: 3 amplified by PCR in Example 6” was phosphorylated with 5′-polynucleotide kinase (Takara Bio Inc.), and then, the regions of SEQ ID No: 3 were ligated in tandem with each other by using a ligation kit (Toyobo). The ligated DNA fragment was digested with restriction enzymes KpnI and NheI, and subjected to agarose gel electrophoresis. DNA fragment consisting of three copies of the regions of SEQ ID No: 3 linked in tandem and DNA fragment consisting of five copies of the regions of SEQ ID No: 3 linked in tandem were excised from the gel based on their molecular weight, and purified with a QIAQUICK Gel Extraction Kit. These DNA fragments were digested with KpnI and NheI, and incorporated into a vector pTHE100/Luc containing no region of SEQ ID No: 3, to prepare a recombinant vector pTHE100×3/Luc containing three tandem copies of the regions of SEQ ID No: 3, and a recombinant vector pTHE100×5/Luc containing five tandem copies of the regions of SEQ ID No: 3 (FIG. 7A). pTH100/Luc, pTHE100×3/Luc, and pTHE100×5/Luc were introduced into Neuro2a by a method similar to that in Example 3. The obtained cell was exposed to 10 nM TCDD, and then, the change in the expression amount of the reporter gene was examined (FIG. 7B).
Further, the transcriptional response to the TCDD concentration and the transcriptional response to dioxin congeners were evaluated by using the pTHE100×3/Luc. The transcriptional response to the TCDD concentration was determined by a method similar to that in Example 3, specifically, by incorporating the vector pTHE100×3/Luc into Neuro2a, exposing the obtained cell to 1 to 10,000 μM of TCDD, and measuring the change in the expression amount of the reporter gene. […] On the other hand, the transcriptional response to dioxin congeners was determined by a method similar to that in Example 3, specifically, by incorporating the vector pTHE100×3/Luc into Neuro2a, exposing the obtained cell to eight kinds of dioxin congeners including TCDD, and measuring the activity of these congeners on transcriptional regulation. […]
(A reporter such as luciferase makes a cellular process visible.)

`Clc1cc2c(cc1Cl)Oc1cc(Cl)c(Cl)cc1O2` [TCDD, 2,3,7,8-tetrachlorodibenzo-p-dioxine]: where the note is “10 nM TCDD, pTH100/Luc, pTHE100×5/Luc”, the “increase in the activity of the test substance on transcriptional regulation, by number of copies of SEQ ID No: 3” value was “highest with the vector pTHE100×3/Luc”. For the setting “eight kinds of dioxin congeners tested”, the “influence of dioxin congeners on transcriptional regulation” value was “exerted influence on transcriptional regulation”. Further, the “expression amount of the reporter gene versus TCDD concentration” value (exposure 1 to 10,000 μM of TCDD (so in the source)) is reported as “increased statistically significantly with the increase in TCDD concentration up to 10 μM”.
